We go through 13 compounds from ChEMBL document CHEMBL3102804, “Synthesis, anticancer activity and DNA-binding properties of novel 4-pyrazolyl-1,8-naphthalimide derivatives” (Bioorg Med Chem Lett, 2014).

The term IC50 denotes the concentration at which inhibition is half-maximal. As a reminder, the ΔTm is the shift of the melting midpoint relative to a reference.

SMILES strings stand for the structures. Activity calls are given as the source filed them. The rule behind the calls is not given here.

In assay [1] the test system is A549. Put plainly: Potency index, ratio of amonafide IC50 to compound IC50 for human A549 cells. The assay is classed as functional.
The subject of assay [2] is HeLa. Put plainly: Cytotoxicity against human HeLa cells assessed as cell viability after 48 hrs by MTT assay. The assay is classed as functional, cell-based. On the technique in general: Tetrazolium dyes change colour on reduction, which living cells bring about.
The test system of assay [3] is A549. Put plainly: Cytotoxicity against human A549 cells assessed as cell viability after 48 hrs by MTT assay. The settings on record: A549, 48 h. In kind it is functional, cell-based.
The test system of assay [4] is MCF7. Put plainly: Cytotoxicity against human MCF7 cells assessed as cell viability after 48 hrs by MTT assay. The note with it: MCF7, 48 h. The assay is classed as functional, cell-based.
Assay [5] has as its system DNA. The experiment in a line: Binding affinity to calf thymus DNA assessed as hypochromicity/bathochromic shift after 120 mins by UV-vis absorption spectra analysis. The assay is classed as nucleic-acid assay. The settings on record: Bos taurus.
For assay [6], the system named is DNA. The experiment in a line: Binding affinity to calf thymus DNA at compound to DNA ratio >= 2 by CD spectra analysis. The settings on record: Bos taurus. The assay is classed as nucleic-acid assay.
The subject of assay [7] is MCF7. Put plainly: Potency index, ratio of amonafide IC50 to compound IC50 for human MCF7 cells. In kind it is functional.
Assay [8] concerns DNA. Put plainly: Binding affinity to calf thymus DNA by fluorescent spectra analysis. The assay is classed as nucleic-acid assay. The note with it: Bos taurus.
For assay [9], the system named is DNA. The experiment in a line: Binding affinity to calf thymus DNA assessed as change in melting temperature at 5 uM by UV spectrophotometric analysis. The assay is classed as nucleic-acid assay. The settings on record: Bos taurus.
Assay [10] concerns DNA. The experiment in a line: Binding affinity to calf thymus DNA at compound to DNA ratio 0.1 to 0.5 by CD spectra analysis. The assay is classed as nucleic-acid assay. The note with it: Bos taurus.
The test system of assay [11] is HeLa. Put plainly: Potency index, ratio of amonafide IC50 to compound IC50 for human HeLa cells. The assay is classed as functional.
Assay [12] has as its system DNA. Put plainly: Binding affinity to calf thymus DNA assessed as melting temperature at 5 uM by UV spectrophotometric analysis (reference value: 59.7 degC). The settings on record: Bos taurus. In kind it is nucleic-acid assay.

For the compound `Cc1ccc(-c2cnn(-c3ccc4c5c(cccc35)C(=O)N(CCN(C)C)C4=O)c2)cc1`, in assay [1], the “Ratio IC50” value turned out to be 2.6. The IC50 in assay [2] was found to be 4.6 µM; in [3] it was 5.09 µM; in assay [4], 17 µM.
As for `COc1cc(-c2cnn(-c3ccc4c5c(cccc35)C(=O)N(CCN(C)C)C4=O)c2)cc(OC)c1OC`, in assay [5], the Kb is 1.01 ×10⁴ /M. In addition, the “Ratio IC50” value is recorded as 2.5 in [1], 3.3 in assay [7] and 2.2 in [11]. The figures for the IC50 in [2], in assay [3] and in [4] were 3.09 µM, 5.14 µM and 0.51 µM, respectively. Besides, the outcome in assay [6] and in [10] was Active. The Kbapp in assay [8] was 1.04 ×10⁴ /M. Further, in assay [9], the ΔTm is 1.8 °C. In [12], the Tm was 61.5 °C.
With `CN(C)CCN1C(=O)c2cccc3c(-n4cc(-c5ccccc5)cn4)ccc(c23)C1=O`, the IC50 came to 6.5 µM in [2], 8.52 µM in assay [3] and 1.58 µM in assay [4].
On the same counts, the results for `CN(C)CCN1C(=O)c2cccc3c(-n4cc(-c5ccc(Br)cc5)cn4)ccc(c23)C1=O` are 3.47 µM, more than 50 µM and 10.7 µM.
On the same counts, the results for `CN(C)CCN1C(=O)c2cccc3c(-n4cc(-c5cc(C(F)(F)F)cc(C(F)(F)F)c5)cn4)ccc(c23)C1=O` are 16.6 µM, 25.4 µM and 3.39 µM.
Turning to `CN(C)CCN1C(=O)c2cccc3cc(N)cc(c23)C1=O` [AMONAFIDE], the concentration for half-maximal inhibition (IC50) in assay [2] is 6.71 µM.
On to `COc1ccc(-c2cnn(-c3ccc4c5c(cccc35)C(=O)N(CCN(C)C)C4=O)c2)cc1OC`, for which the values for the IC50 in assay [2], in assay [3] and in [4] were 3.5 µM, 11.8 µM and 0.79 µM, respectively.
As to `COc1cccc(-c2cnn(-c3ccc4c5c(cccc35)C(=O)N(CCN(C)C)C4=O)c2)c1`, the IC50 in assay [2] worked out at 14.6 µM; in assay [3], 12 µM; in assay [4], 1.99 µM.
The corresponding values for `CN(C)CCN1C(=O)c2cccc3c(-n4cccn4)ccc(c23)C1=O` are 9.47 µM, more than 50 µM and 2.72 µM.
In the case of `COc1ccc(-c2cnn(-c3ccc4c5c(cccc35)C(=O)N(CCN(C)C)C4=O)c2)cc1`, the IC50 turned out to be 4.99 µM in [2], 7.69 µM in assay [3] and 2.62 µM in assay [4].
On the same counts, the results for `CN(C)CCN1C(=O)c2cccc3c(-n4cc(-c5ccc(C(F)(F)F)cc5)cn4)ccc(c23)C1=O` are 13.3 µM, 25 µM and 4.26 µM.
Regarding `CN(C)CCN1C(=O)c2cccc3c(-n4cc(-c5ccc(Cl)cc5)cn4)ccc(c23)C1=O`, the IC50 in [2] worked out at 10.6 µM; in [3] it was 17.2 µM; in [4], 4.24 µM.
The corresponding values for `CN(C)CCN1C(=O)c2cccc3c(-n4cc(-c5ccc(F)cc5)cn4)ccc(c23)C1=O` are 3.1 µM, 24 µM and 1.56 µM.
